Laboratory results reported in patent US6280725A, “Compositions and methods for inhibiting the growth of fungi” (Lipton, division of Conopco, Inc., priority 2000, dated 2001).

Assays:
Assay type in all cases: cell-based
[1] = tested on: Saccharomyces cerevisiae strain SU52-pUR5801; test: Cell wall protein release test (α-galactosidase-CWP2p secretion into medium); details: FIG. 1
Procedure: b) Saccharomyces cerevisiae strain SU52-pUR5801 was cultivated in Difco yeast nitrogen base (YNB), supplemented with 2% glucose and 0.004% histidine. After the culture had reached the late log-phase, the cells were cultivated further (a 10% inoculum) in YEPD medium, consisting of 1% Difco yeast extract, 2% Bacto-peptone, supplemented with 0.5% glucose and 5% galactose.
a) Saccharomyces cerevisiae strain SU52-pUR 5801 was grown in YNB and YEPD media, at 30° C. with shaking at 225 rpm in an orbital incubator until a OD (660 nm) between 5 and 6 was reached. In parallel experiments several concentrations of β-gentiobiose or pustulan fragments were included in the media. After cultivation, the media were separated from the cells by centrifugation (10.000×g for 15 min at 4° C.). The media were then filtered using […] filters. Secretion of α-(-galactosidase-CWP2p was assessed by measuring α-(-galactosidase enzyme activity in the media (see further on). […]
β-Gentiobiose was dissolved in YEPD media supplemented with 5% galactose, in concentrations of 10, 50 and 100 mM respectively. […] The enzyme activity of the fusion protein CWP2-α-galactosidase was measured as described in the α-galactosidase assay.

[2] = tested on: Saccharomyces cerevisiae wild type strain SU-50; test: Growth inhibition (growth curves) of wild type yeast SU-50; details: for effect on growth of SU50: 25 mM sugar with 25 μM MB21, 100 cells per ml, vs reference and MB21 alone, effect if any, FIG. 5a
Procedure: (§1) For examples 2, and 4-9 grow-curves were recorded at 25° C. using a microbiology growth reader (Bioscreen C, ex Labsystems). For example 3, growth curve was determined as turbidity, measured by hand at a wave length of 660 nm (OD 660).
a) Saccharomyces cerevisiae strain SU-50 was cultivated in YEPD medium, supplemented with 2% glucose.
b) Growth curves were obtained with the strain SU-50. The cells (about 10 per ml) were cultured in YEPD at 25° C. in the presence or absence of β-gentiobiose or pustulan fragments and MB-21, by using a 24 well plate at room temperature with continuous shaking on a micro-titre plate shaker (mark 4) or a microbiology growth reader (Bioscreen C).
Three YEPD media were prepared, one without MB21, the other YEPD media contained 10 μM MB21 and 20 μM MB21, respectively. To these media β-gentiobiose was added in concentrations of 0, 50, 100 and 200 mM. The yeast strain SU50 was inoculated in these media in a concentration of 10 cells per ml, and cultivated in a 24 well plate at 25° C. Samples were taken from a 24 well plate at regular time intervals, diluted sixty times with distilled water and measured at 660 nm to construct the growth curves.
This example illustrates a relationship between the length of the β-(1,6)-glucan fragments and their effectiveness in competition.
(§2) In this example, three strains are grown in various media in the fashion of example 3, with the exception of being inoculated in the media in a concentration of 100 cells per ml. The sugars used are all comparatives: laminaribiose (β-1,3)-linked D-glucose), sucrose (having a 1,2 link), and sorbitol.
In this example, strain SU 50 was grown three media (see table 2) in the fashion of example 3, with the exception of being inoculated in the media in a concentration of 100 cells per ml.

[3] = tested on: Zygosaccharomyces bailii G1; test: Growth curves / relative inhibition of strain G1; details: 200 mM sugar with 6 μM MB21, 100 cells per ml, vs reference and MB21 alone; effect if any; FIG. 5c
Procedure: as §1
d) Zygosaccharomyces bailii G1: as SU-50 above.
as §2
In this example, strain G1 was grown three media (see table 4) in the fashion of example 3, with the exception of being inoculated in the media in a concentration of 100 cells per ml.
In this example, strain G1 was grown in the fashion of example 3 (with the exception of being inoculated in the media in a concentration of 100 cells per ml) in the presence of 6 μM MB21 and 50 mM of a β-(1,6)-glucan. Experiments were done with short-chain β-(1,6)-glucan of variable chain length.

[4] = tested on: Zygosaccharomyces bailii ZB (NCYC 563); test: Growth curves of strain ZB; details: 200 mM sugar with 6 μM MB21, 100 cells per ml, vs reference and MB21 alone; effect if any; FIG. 5b
Procedure: as §1
c) Zygosaccharomyces bailii ZB: as SU-50 above.
as §2
In this example, strain ZB was grown three media (see table 3) in the fashion of example 3, with the exception of being inoculated in the media in a concentration of 100 cells per ml.

| Compound | relationship between concentration and secretion of the fusion construct ([1]; at least up to 100 mM β-gentiobiose) | secretion (release) of the fusion protein α-galactosidase-CW2p from the cell wall ([1]; β-gentiobiose 10, 50 and 100 mM in YEPD with 5% galactose, 30° C., 18 hours) | influence on the growth of SU-50 ([2]; β-gentiobiose as such (0, 50, 100, 200 mM, no MB21), 10 cells per ml, 25° C., OD 660, FIG. 3) | effect on growth of SU50 [2] | effect on growth of G1 [3] | effect on growth of ZB [4] |
| --- | --- | --- | --- | --- | --- | --- |
| OC[C@H]1O[C@@H](OC[C@H]2O[C@@H](O)[C@H](O)[C@@H](O)[C@@H]2O)[C@H](O)[C@@H](O)[C@@H]1O [β-gentiobiose, 6-O-β-glucopyranosyl-β-D-glucose] | linear relationship | concentration dependent | no influence | – | – | – |
| OC[C@H]1O[C@@H](O[C@H]2[C@H](O)[C@@H](CO)OC(O)[C@@H]2O)[C@H](O)[C@@H](O)[C@@H]1O (stereo partly shown) [laminaribiose] | – | – | – | stimulating effect | – | – |
| OC[C@@H](O)[C@@H](O)[C@H](O)[C@@H](O)CO [sorbitol] | – | – | – | stimulating effect | stimulating effect | stimulating effect |
| OC[C@H]1O[C@@](CO)(O[C@H]2O[C@H](CO)[C@@H](O)[C@H](O)[C@H]2O)[C@@H](O)[C@@H]1O [sucrose] | – | – | – | stimulating effect | stimulating effect | stimulating effect |
